Laboratory results reported in article PMC6487070, “Molecular transport through primary human small intestinal monolayers by culture on a collagen scaffold with a gradient of chemical cross-linking” (Journal of Biological Engineering, 2019).
Read-outs that look alike come from different tables or passages of the source.

Columns and labels:
Assay type in all cases: in vitro ADME
[1] = target: T1, BCRP (Homo sapiens, UniProt Q9UNQ0); experiment: Bidirectional transport of prazosin across monolayers with and without Ko143; conditions: gradient cross-linked scaffold
T1 construct: endogenous in cells; host or cells: primary human small intestinal epithelial cell monolayers on a gradient cross-linked or conventional collagen scaffold
T1 sequence (Q9UNQ0 1-655): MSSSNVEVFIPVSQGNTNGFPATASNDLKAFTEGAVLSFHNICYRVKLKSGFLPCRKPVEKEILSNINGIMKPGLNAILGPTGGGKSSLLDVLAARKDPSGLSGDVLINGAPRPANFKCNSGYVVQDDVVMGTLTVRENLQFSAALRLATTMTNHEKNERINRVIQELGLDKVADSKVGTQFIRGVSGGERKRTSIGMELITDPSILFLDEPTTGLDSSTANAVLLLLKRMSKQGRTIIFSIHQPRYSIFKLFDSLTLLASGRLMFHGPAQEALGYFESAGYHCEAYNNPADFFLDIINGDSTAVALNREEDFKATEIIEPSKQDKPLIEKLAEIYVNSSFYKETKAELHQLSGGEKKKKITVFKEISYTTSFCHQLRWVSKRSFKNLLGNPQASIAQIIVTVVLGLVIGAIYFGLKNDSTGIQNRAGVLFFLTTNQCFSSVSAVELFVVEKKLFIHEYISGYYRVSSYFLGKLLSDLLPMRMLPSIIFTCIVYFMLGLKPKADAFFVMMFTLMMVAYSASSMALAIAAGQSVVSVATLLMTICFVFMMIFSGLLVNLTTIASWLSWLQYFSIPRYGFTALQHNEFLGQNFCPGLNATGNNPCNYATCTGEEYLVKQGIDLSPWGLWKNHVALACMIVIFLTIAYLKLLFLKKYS
Method: All transport assays were performed by adding LY ([…]) and the drug to the luminal or basal reservoirs of the monolayer (n = 3). Samples were collected after 3 h. LY was added to ensure that monolayer integrity remained intact throughout the assay. Additionally, TEER was measured before and after the assay to further verify that monolayer integrity remained constant throughout the assay. Monolayers with a TEER > 90 Ω cm^2 or 300 Ω cm^2 were used for the gradient cross-linked scaffold and conventional scaffold, respectively. […] Zosuquidar and Ko143 were added to inhibit digoxin transport and prazosin transport, respectively, 2.5 h after addition of the substrate. […]
The concentration of the drug in the collected sample was determined using HPLC-triple quadrupole mass spectrometry (LC-MS/MS, PE Sciex API 3000, AB Sciex) with multiple reaction monitoring (MRM). […] Sample concentrations were quantified using the standard curve and normalized to the signal of the appropriate internal standard. The drug apparent permeability was calculated according to the following equation: Papp = (V/(A x Ci)) x (Cf/T) where V is the volume of the basal chamber (mL), A is the area of epithelial layer (cm^2), Ci is the initial concentration of the molecule (nM), Cf is the final concentration of the drug, and T is the assay time (s). […]

[2] = tested on: P-gp; experiment: Bidirectional transport of digoxin across monolayers with and without zosuquidar; conditions: human, n = 3, read-out: efflux ratio Papp(B-L)/Papp(L-B)
Method: All transport assays were performed by adding LY ([…]) and the drug to the luminal or basal reservoirs of the monolayer (n = 3). Samples were collected after 3 h. LY was added to ensure that monolayer integrity remained intact throughout the assay. Additionally, TEER was measured before and after the assay to further verify that monolayer integrity remained constant throughout the assay. Monolayers with a TEER > 90 Ω cm^2 or 300 Ω cm^2 were used for the gradient cross-linked scaffold and conventional scaffold, respectively. […] Zosuquidar and Ko143 were added to inhibit digoxin transport and prazosin transport, respectively, 2.5 h after addition of the substrate. Samples were collected 30 min after inhibitor addition for a totally assay time of 3 h.
The concentration of the drug in the collected sample was determined using HPLC-triple quadrupole mass spectrometry (LC-MS/MS, PE Sciex API 3000, AB Sciex) with multiple reaction monitoring (MRM). A C-18 analytical column with a linear gradient from 100% water with 1% formic acid to 80% acetonitrile with 1% formic acid over 8 min (0.3 mL/min) was used for the separation. […] Digitoxin was used as an internal standard for digoxin samples. Doxasozin was used an internal standard for prazosin samples. All internal standards were added to samples just prior to LC-MS/MS analysis. […] Sample concentrations were quantified using the standard curve and normalized to the signal of the appropriate internal standard. The drug apparent permeability was calculated according to the following equation: Papp = (V/(A x Ci)) x (Cf/T) where V is the volume of the basal chamber (mL), A is the area of epithelial layer (cm^2), Ci is the initial concentration of the molecule (nM), Cf is the final concentration of the drug, and T is the assay time (s). The average Papp with a single standard deviation is shown (average ± SD). The efflux ratio was calculated according to the following equation: Efflux Ratio = Papp(B-L)/Papp(L-B).

[3] = tested on: primary human small intestinal epithelial monolayers; experiment: Monolayer integrity: permeability of LY and fluorescein-dextran through small intestinal epithelial monolayers; conditions: monolayers on gradient cross-linked scaffold and on conventional scaffold; luminal to basal, 3 h; n = 3
Method: Neither LY nor fluorescein-dextran are transported by the intestinal epithelium. The TEER was measured using an EVOM^2 epithelial Volt/Ohm meter (World Precision Instruments, Sarasota, FL). The raw resistance measurements of the monolayers were subtracted from that of the average resistance (n = 3) of the collagen layer without cells and normalized by multiplying the cell culture area of the well to provide a TEER in units of Ω cm^2 [48]. The average TEER (n = 3) with a single standard deviation (SD) is shown (average ± SD). […] The amount of LY (ex: 428 nm, em: 520 nm) and fluorescein-dextran (ex: 490 nm, em: 520 nm) in the basal side was determined by measuring their fluorescence in a microplate reader (Spectramax M5, Molecular Devices Corporation, San Jose, CA). The luminal-to-basal apparent permeability (Papp) were calculated according to the following equation: […] The average Papp with a single standard deviation is shown (average ± SD).

## COc1cc2nc(N3CCN(C(=O)c4ccco4)CC3)nc(N)c2cc1OC [prazosin]
[1]; no inhibitor, read-out: efflux ratio Papp(B-L)/Papp(L-B)
  efflux ratio at 3 h: 6.5
[1]; with Ko143 (concentration not stated), with BCRP inhibitor Ko143, read-out: efflux ratio Papp(B-L)/Papp(L-B)
  efflux ratio at 3 h: 1.7

## C[C@H]1O[C@@H](O[C@H]2[C@@H](O)C[C@H](O[C@H]3[C@@H](O)C[C@H](O[C@H]4CC[C@@]5(C)[C@H](CC[C@@H]6[C@@H]5C[C@@H](O)[C@]5(C)[C@@H](C7=CC(=O)OC7)CC[C@]65O)C4)O[C@@H]3C)O[C@@H]2C)C[C@H](O)[C@@H]1O [digoxin]
[2]; conventional scaffold, no inhibitor
  efflux ratio at 3 h: 2.3
[2]; gradient cross-linked scaffold, no inhibitor
  efflux ratio at 3 h: 2.7
[2]; with zosuquidar (concentration not stated), conventional scaffold, in the presence of P-gp inhibitor zosuquidar
  efflux ratio at 3 h: 1.4
[2]; with zosuquidar (concentration not stated), gradient cross-linked scaffold, in the presence of P-gp inhibitor zosuquidar
  efflux ratio at 3 h: 1.4

## Lucifer yellow [LY]
[3]
  permeability through confluent, differentiated monolayers: low
